For 23 compounds, IC50 results are on record in US20260062443A1 (ALEXION PHARMACEUTICALS, INC., priority 2022, published 2026).

For the test, the target named is T1, Human complement C1s enzyme (Homo sapiens, UniProt P09871).
T1 sequence (P09871 438-688 limits assumed): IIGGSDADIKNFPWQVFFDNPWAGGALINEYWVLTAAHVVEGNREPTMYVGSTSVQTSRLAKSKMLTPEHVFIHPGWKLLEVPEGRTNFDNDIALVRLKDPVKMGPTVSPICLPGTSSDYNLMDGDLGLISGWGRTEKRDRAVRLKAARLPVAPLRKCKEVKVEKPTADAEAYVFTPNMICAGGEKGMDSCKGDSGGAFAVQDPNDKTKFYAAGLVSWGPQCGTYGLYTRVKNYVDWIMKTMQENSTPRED
T1 sequence (P09871 16-437 partner limits assumed): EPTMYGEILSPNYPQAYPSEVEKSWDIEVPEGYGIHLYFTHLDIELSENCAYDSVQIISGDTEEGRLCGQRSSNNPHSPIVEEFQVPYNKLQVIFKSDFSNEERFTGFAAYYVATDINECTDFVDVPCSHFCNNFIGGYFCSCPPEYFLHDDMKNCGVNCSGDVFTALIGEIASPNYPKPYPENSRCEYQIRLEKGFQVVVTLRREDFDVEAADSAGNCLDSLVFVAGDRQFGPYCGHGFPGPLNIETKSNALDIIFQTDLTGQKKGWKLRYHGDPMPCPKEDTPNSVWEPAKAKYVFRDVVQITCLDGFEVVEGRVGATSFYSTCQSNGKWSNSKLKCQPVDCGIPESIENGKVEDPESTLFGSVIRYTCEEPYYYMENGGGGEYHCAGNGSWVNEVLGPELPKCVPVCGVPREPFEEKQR
As to the kind of experiment: Human C1s enzyme assay. Type of test: biochemical. The following applies: human complement C1s enzyme 1.16 nM, substrate Z-L-Lys-SBzl 100 μM, 5 min preincubation; read-out: IC50 (Stars), C1s Inhibiting Activity. Here is the method:
Other standard complement assays are also available.
Human complement C1s enzyme (purified from human serum, Complement Technology, Inc.) at 1.16 nM final concentration was incubated with test compound at various concentrations for 5 min at room temperature in 50 mM Tris, 1 M NaCl, pH 7.5. A synthetic substrate Z-L-Lys-SBzl and DTNB (Ellman's reagent) were added to final concentrations of 100 μM each. Absorbance at 405 nm (A405) was recorded at 30 second intervals for 30 min using a microplate spectrophotometer. IC50 values were calculated by nonlinear regression of complement C1 s reaction rates as a function of test compound concentration.
ND indicates a compound for which the IC50 value is not determined.

Consider `COC[C@@H]1C[C@@H](C(=O)NCc2cc3cnccc3[nH]2)N(C(=O)CNC(=O)c2cccc(Oc3ccc(C)cc3F)c2)C1` (relative stereo) [Compound 318, (2S,4R*)-N-((1H-pyrrolo[3,2-c]pyridin-2-yl)methyl)-1-((3-(2-fluoro-4-methylphenoxy)benzoyl)glycyl)-4-(methoxymethyl)pyrrolidine-2-carboxamide], for which the IC50 is under 100 nM. As to `CC(NC(=O)[C@@H]1CC2(CN1C(=O)CNC(=O)c1ccc3c(c1)Oc1ccccc1S3)OCCO2)c1cc2cnccc2[nH]1` (stereo in doubt) [Compound 102, (S)-N-((S)-1-(1H-pyrrolo[3,2-c]pyridin-2-yl)ethyl)-7-((phenoxathiine-3-carbonyl)glycyl)-1,4-dioxa-7-azaspiro[4.4]nonane-8-carboxamide], the half-maximal inhibitory concentration (IC50) is under 100 nM. As to `C[C@@]12C[C@@H]1N(C(=O)CNC(=O)c1ccc(Oc3ccccc3)cc1)[C@H](C(=O)NCc1cc3c(s1)C(N)=NCC3)C2` [Compound 1, (1S,3S,5S)-N-((7-amino-4,5-dihydrothieno[2,3-c]pyridin-2-yl)methyl)-5-methyl-2-((4-phenoxybenzoyl)glycyl)-2-azabicyclo[3.1.0]hexane-3-carboxamide], the IC50 is over 1000 nM. As for `O=C(NCC(=O)N1CC2(C[C@H]1C(=O)NCc1cc3cnccc3[nH]1)OCCO2)c1ccc2c(c1)-c1ccccc1C2(F)F` [Compound 2, (S)-N-((1H-pyrrolo[3,2-c]pyridin-2-yl)methyl)-7-((9,9-difluoro-9H-fluorene-3-carbonyl)glycyl)-1,4-dioxa-7-azaspiro[4.4]nonane-8-carboxamide], the figure is under 100 nM; as for `O=C(NCC(=O)N1CC2(C[C@H]1C(=O)NCc1cc3ccccc3[nH]1)OCCO2)c1ccc2c(c1)-c1ccccc1C2(F)F` [Compound 3, (S)-N-((1H-indol-2-yl)methyl)-7-((9,9-difluoro-9H-fluorene-3-carbonyl)glycyl)-1,4-dioxa-7-azaspiro[4.4]nonane-8-carboxamide], over 1000 nM; as for `O=C(NCC(=O)N1CC2(C[C@H]1C(=O)NCc1cc3cnccc3[nH]1)OCCO2)c1ccc2c(c1)Oc1ccccc1S2` [Compound 4, (S)-N-((1H-pyrrolo[3,2-c]pyridin-2-yl)methyl)-7-((phenoxathiine-3-carbonyl)glycyl)-1,4-dioxa-7-azaspiro[4.4]nonane-8-carboxamide], under 100 nM. As for `COC[C@@]1(F)C[C@@H](C(=O)NCc2cc3cnccc3[nH]2)N(C(=O)CNC(=O)c2ccc3c(c2)-c2ccccc2C3(F)F)C1` [Compound 5, (2S,4R)-N-((1H-pyrrolo[3,2-c]pyridin-2-yl)methyl)-1-((9,9-difluoro-9H-fluorene-3-carbonyl)glycyl)-4-fluoro-4-(methoxymethyl)pyrrolidine-2-carboxamide], the 50% inhibitory concentration (IC50) was under 100 nM. As to `O=C(NCC(=O)N1C[C@@](F)(CF)C[C@H]1C(=O)NCc1cc2cnccc2[nH]1)c1ccc2c(c1)-c1ccccc1C2(F)F` [Compound 6, (2S,4R)-N-((1H-pyrrolo[3,2-c]pyridin-2-yl)methyl)-1-((9,9-difluoro-9H-fluorene-3-carbonyl)glycyl)-4-fluoro-4-(fluoromethyl)pyrrolidine-2-carboxamide], the IC50 is under 100 nM. For `CS(=O)(=O)[C@@H]1C[C@@H](C(=O)NCc2cc3cnccc3[nH]2)N(C(=O)CNC(=O)c2ccc3c(c2)-c2ccccc2C3(F)F)C1` [Compound 7, (2S,4R)-N-((1H-pyrrolo[3,2-c]pyridin-2-yl)methyl)-1-((9,9-difluoro-9H-fluorene-3-carbonyl)glycyl)-4-(methylsulfonyl)pyrrolidine-2-carboxamide], the IC50 was under 100 nM.

With `O=C(NCC(=O)N1C[C@H](OC(F)F)C[C@H]1C(=O)NCc1cc2cnccc2[nH]1)c1ccc2c(c1)-c1ccccc1C2(F)F` [Compound 8, (2S,4R)-N-((1H-pyrrolo[3,2-c]pyridin-2-yl)methyl)-1-((9,9-difluoro-9H-fluorene-3-carbonyl)glycyl)-4-(difluoromethoxy)pyrrolidine-2-carboxamide], the IC50 was under 100 nM. Take `O=C(NCC(=O)N1CC2(C[C@H]1C(=O)NCc1cc3ccncc3[nH]1)OCCO2)c1ccc2c(c1)-c1ccccc1C2(F)F` [Compound 9, (S)-N-((1H-pyrrolo[2,3-c]pyridin-2-yl)methyl)-7-((9,9-difluoro-9H-fluorene-3-carbonyl)glycyl)-1,4-dioxa-7-azaspiro[4.4]nonane-8-carboxamide]: the IC50 is 100 to 1000 nM.

In the case of `O=C(NCC(=O)N1CC2(C[C@H]1C(=O)NCc1cc3cccnc3[nH]1)OCCO2)c1ccc2c(c1)-c1ccccc1C2(F)F` [Compound 10, (S)-N-((1H-pyrrolo[2,3-b]pyridin-2-yl)methyl)-7-((9,9-difluoro-9H-fluorene-3-carbonyl)glycyl)-1,4-dioxa-7-azaspiro[4.4]nonane-8-carboxamide], the IC50 was over 1000 nM. With `O=C(NCC(=O)N1CC2(C[C@H]1C(=O)NCc1cc3ccccc3[nH]1)OCCO2)c1ccc(Oc2ccccc2)cc1` [Compound 11, (S)-N-((1H-indol-2-yl)methyl)-7-((4-phenoxybenzoyl)glycyl)-1,4-dioxa-7-azaspiro[4.4]nonane-8-carboxamide], the IC50 is over 1000 nM. `O=C(NCC(=O)N1CC2(C[C@H]1C(=O)NCc1ccn[nH]1)OCCO2)c1ccc(Oc2ccccc2)cc1` [Compound 12, (S)-N-((1H-pyrazol-5-yl)methyl)-7-((4-phenoxybenzoyl)glycyl)-1,4-dioxa-7-azaspiro[4.4]nonane-8-carboxamide]: the IC50 was over 1000 nM.

Take `C[C@@]12C[C@@H]1N(C(=O)CNC(=O)c1ccc(Oc3ccccc3)cc1)[C@H](C(=O)NCc1cccc(Cl)c1Cl)C2` [Compound 13, (1S,3S,5S)-N-(2,3-dichlorobenzyl)-5-methyl-2-((4-phenoxybenzoyl)glycyl)-2-azabicyclo[3.1.0]hexane-3-carboxamide]: the 50% inhibitory concentration (IC50) was over 1000 nM. Turning to `O=C(NCC(=O)N1CC2(C[C@H]1C(=O)NCc1ccc[nH]1)OCCO2)c1ccc(Oc2ccccc2)cc1` [Compound 14, (S)-N-((1H-pyrrol-2-yl)methyl)-7-((4-phenoxybenzoyl)glycyl)-1,4-dioxa-7-azaspiro[4.4]nonane-8-carboxamide], the IC50 is over 1000 nM. As for `O=C(NCC(=O)N1CC2(C[C@H]1C(=O)NCc1ncc[nH]1)OCCO2)c1ccc(Oc2ccccc2)cc1` [Compound 15, (S)-N-((1H-imidazol-2-yl)methyl)-7-((4-phenoxybenzoyl)glycyl)-1,4-dioxa-7-azaspiro[4.4]nonane-8-carboxamide], the IC50 is over 1000 nM. For the compound `O=C(NCC(=O)N1CC2(C[C@H]1C(=O)NCc1cc3cncnc3[nH]1)OCCO2)c1ccc2c(c1)-c1ccccc1C2(F)F` [Compound 16, (S)-N-((7H-pyrrolo[2,3-d]pyrimidin-6-yl)methyl)-7-((9,9-difluoro-9H-fluorene-3-carbonyl)glycyl)-1,4-dioxa-7-azaspiro[4.4]nonane-8-carboxamide], the IC50 was over 1000 nM. The value for `O=C(NCC(=O)N1CC2(C[C@H]1C(=O)NCc1cc3cnccc3[nH]1)OCCO2)c1ccc(-c2ccccc2)cc1` [Compound 17, (S)-N-((1H-pyrrolo[3,2-c]pyridin-2-yl)methyl)-7-(([1,1′-biphenyl]-4-carbonyl)glycyl)-1,4-dioxa-7-azaspiro[4.4]nonane-8-carboxamide] was under 100 nM. Consider `O=C(NCC(=O)N1C[C@H](OC(F)F)C[C@H]1C(=O)NCc1cc2cnccc2[nH]1)c1ccc(Oc2ccccc2)cc1` [Compound 18, (2S,4R)-N-((1H-pyrrolo[3,2-c]pyridin-2-yl)methyl)-4-(difluoromethoxy)-1-((4-phenoxybenzoyl)glycyl) pyrrolidine-2-carboxamide], for which the IC50 is under 100 nM. `O=C(NCC(=O)N1CC2(C[C@H]1C(=O)NCc1cc3cc(Cl)ccc3[nH]1)OCCO2)c1ccc2c(c1)Oc1ccccc1S2` [Compound 19, (S)-N-((5-chloro-1H-indol-2-yl)methyl)-7-((phenoxathiine-3-carbonyl)glycyl)-1,4-dioxa-7-azaspiro[4.4]nonane-8-carboxamide]: the IC50 was over 1000 nM.

For the compound `O=C(CCCOc1ccccc1)NCC(=O)N1CC2(C[C@H]1C(=O)NCc1cc3cnccc3[nH]1)OCCO2` [Compound 20, (S)-N-((1H-pyrrolo[3,2-c]pyridin-2-yl)methyl)-7-((4-phenoxybutanoyl)glycyl)-1,4-dioxa-7-azaspiro[4.4]nonane-8-carboxamide], the IC50 was under 100 nM. Take `COC[C@@]1(F)C[C@@H](C(=O)N[C@@H](C)c2cc3cnccc3[nH]2)N(C(=O)CNC(=O)c2ccc(Oc3ccccc3)cc2)C1` [Compound 21, (2S,4R)-N-((S)-1-(1H-pyrrolo[3,2-c]pyridin-2-yl)ethyl)-4-fluoro-4-(methoxymethyl)-1-((4-phenoxybenzoyl)glycyl)pyrrolidine-2-carboxamide]: the IC50 is over 1000 nM.
